Key:
Viola tricolor [1] = experiment: Post-emergence herbicidal effect; type: in vivo; settings: assessed visually after about 3 weeks vs untreated controls
Outline: (§1)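 Seedlings at the one-leaf stage, about 2 to 3 weeks old, are sprayed on their foliage with compound suspended or emulsified in water containing 0.2% wetting agent. After roughly 3 weeks in the greenhouse, injury is estimated visually on a 0 to 100% scale.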

Amaranthus retroflexus [2] = experiment: Post-emergence herbicidal effect; type: in vivo; settings: 320 g/ha, assessed visually after about 3 weeks vs untreated controls
Outline: as §1

Veronica persica [3] = experiment: Post-emergence herbicidal effect; type: in vivo; settings: assessed visually after about 3 weeks vs untreated controls
Outline: as §1

Abutilon theophrasti [4] = experiment: Post-emergence herbicidal effect; type: in vivo; settings: assessed visually after about 3 weeks vs untreated controls
Outline: as §1

Setaria viridis [5] = experiment: Post-emergence herbicidal effect; type: in vivo; settings: assessed visually after about 3 weeks vs untreated controls
Outline: as §1

Matricaria inodora [6] = experiment: Post-emergence herbicidal effect; type: in vivo; settings: assessed visually after about 3 weeks vs untreated controls
Outline: as §1

Viola tricolor [7] = experiment: Pre-emergence herbicidal effect; type: in vivo; settings: scored visually after 3 weeks
Outline: (§2)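 Pre-emergence soil-surface application of compound as WP or EC in water (600 to 800 L/ha, 0.2% wetting agent) to freshly sown, soil-covered seeds in sandy loam. After 3 weeks under greenhouse conditions, percent activity rated by eye versus untreated plants, from 0% (no effect) to 100% (death).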

Echinochloa crus-galli [8] = experiment: Pre-emergence herbicidal effect; type: in vivo; settings: scored visually after 3 weeks
Outline: as §2

Lolium multiflorum = experiment: Pre-emergence herbicidal effect; type: in vivo; settings: Dosage 320 g/ha, scored visually after 3 weeks
Outline: as §2

Amaranthus retroflexus [9] = experiment: Pre-emergence herbicidal effect; type: in vivo; settings: scored visually after 3 weeks
Outline: as §2

Veronica persica [10] = experiment: Pre-emergence herbicidal effect; type: in vivo; settings: scored visually after 3 weeks
Outline: as §2

Ipomoea purpurea = experiment: Pre-emergence herbicidal effect; type: in vivo; settings: scored visually after 3 weeks
Outline: as §2

Setaria viridis [11] = experiment: Pre-emergence herbicidal effect; type: in vivo; settings: scored visually after 3 weeks
Outline: as §2

Alopecurus myosuroides = experiment: Pre-emergence herbicidal effect; type: in vivo; settings: scored visually after 3 weeks
Outline: as §2

Polygonum convolvulus = experiment: Pre-emergence herbicidal effect; type: in vivo; settings: scored visually after 3 weeks
Outline: as §2

Stellaria media [12] = experiment: Pre-emergence herbicidal effect; type: in vivo; settings: scored visually after 3 weeks
Outline: as §2

Matricaria inodora [13] = experiment: Pre-emergence herbicidal effect; type: in vivo; settings: scored visually after 3 weeks
Outline: as §2

Stellaria media [14] = experiment: Post-emergence herbicidal effect; type: in vivo; settings: assessed visually after about 3 weeks vs untreated controls
Outline: as §1

Abutilon theophrasti [15] = experiment: Pre-emergence herbicidal effect; type: in vivo; settings: Dosage 320 g/ha, scored visually after 3 weeks
Outline: as §2

Echinochloa crus-galli [16] = experiment: Post-emergence herbicidal effect; type: in vivo; settings: 320 g/ha, assessed visually after about 3 weeks vs untreated controls
Outline: as §1

logP (HCOOH) = type: physicochemical; settings: HCOOH
Text: Table 2 (physicochemical characterization of selected synthesis examples)

Cyperus esculentus = experiment: Pre-emergence herbicidal effect; type: in vivo; settings: Dosage 320 g/ha, scored visually after 3 weeks
Outline: as §2

Row | Compound | post-emergence efficacy VIOTR (Viola tricolor [1]; 80 g/ha) [%] | post-emergence efficacy VIOTR (Viola tricolor [1]; 320 g/ha) [%] | post-emergence efficacy AMARE (Amaranthus retroflexus [2]) [%] | post-emergence efficacy VERPE (Veronica persica [3]; 320 g/ha) [%] | post-emergence efficacy ABUTH (Abutilon theophrasti [4]; 320 g/ha) [%] | post-emergence efficacy MATIN (Matricaria inodora [6]; 320 g/ha) [%] | VIOTR pre-emergence efficacy (herbicidal activity) (Viola tricolor [7]; Dosage 320 g/ha) [%] | ECHCG pre-emergence efficacy (herbicidal activity) (Echinochloa crus-galli [8]; Dosage 320 g/ha) [%] | LOLMU pre-emergence efficacy (herbicidal activity) (Lolium multiflorum) [%] | AMARE pre-emergence efficacy (herbicidal activity) (Amaranthus retroflexus [9]; Dosage 320 g/ha) [%] | VERPE pre-emergence efficacy (herbicidal activity) (Veronica persica [10]; Dosage 80 g/ha) [%] | VERPE pre-emergence efficacy (herbicidal activity) (Veronica persica [10]; Dosage 320 g/ha) [%] | SETVI pre-emergence efficacy (herbicidal activity) (Setaria viridis [11]; Dosage 80 g/ha) [%] | SETVI pre-emergence efficacy (herbicidal activity) (Setaria viridis [11]; Dosage 320 g/ha) [%] | ALOMY pre-emergence efficacy (herbicidal activity) (Alopecurus myosuroides; Dosage 320 g/ha) [%] | POLCO pre-emergence efficacy (herbicidal activity) (Polygonum convolvulus; Dosage 320 g/ha) [%] | STEME pre-emergence efficacy (herbicidal activity) (Stellaria media [12]; Dosage 80 g/ha) [%] | STEME pre-emergence efficacy (herbicidal activity) (Stellaria media [12]; Dosage 320 g/ha) [%] | MATIN pre-emergence efficacy (herbicidal activity) (Matricaria inodora [13]; Dosage 80 g/ha) [%] | MATIN pre-emergence efficacy (herbicidal activity) (Matricaria inodora [13]; Dosage 320 g/ha) [%] | also measured
1 | C/C(=N/OCc1ccccc1)c1cnc(NC2CCCc3sc(C)cc32)nc1N (racemic) [compound 291] | 80 | 80 | 80 | 60 | 90 | 80 | 100 | 80 | 60 | 100 | 100 | 100 | 90 | 100 | 90 | 70 | 100 | 100 | 100 | 100 | post-emergence efficacy ABUTH (Abutilon theophrasti [4]; 80 g/ha): 80%; post-emergence efficacy SETVI (Setaria viridis [5]; 80 g/ha): 60%; post-emergence efficacy SETVI (Setaria viridis [5]; 320 g/ha): 80%; VIOTR pre-emergence efficacy (herbicidal activity) (Viola tricolor [7]; Dosage 80 g/ha): 90%; PHBPU pre-emergence efficacy (herbicidal activity) (Ipomoea purpurea; Dosage 320 g/ha): 100%; ALOMY pre-emergence efficacy (herbicidal activity) (Alopecurus myosuroides; Dosage 80 g/ha): 60%
2 | Cc1cc2c(s1)CCCC2Nc1nc(N)c(-c2cccc(F)c2)c(C(F)F)n1 (racemic) [compound 302] | 90 | 90 | – | – | 60 | – | – | 100 | – | 100 | – | – | 70 | 100 | 70 | 100 | 100 | 100 | 90 | 100 | post-emergence efficacy STEME (Stellaria media [14]; 320 g/ha): 80%; AMARE pre-emergence efficacy (herbicidal activity) (Amaranthus retroflexus [9]; Dosage 80 g/ha): 100%; PHBPU pre-emergence efficacy (herbicidal activity) (Ipomoea purpurea; Dosage 80 g/ha): 60%; PHBPU pre-emergence efficacy (herbicidal activity) (Ipomoea purpurea; Dosage 320 g/ha): 80%; ABUTH pre-emergence efficacy (herbicidal activity) (Abutilon theophrasti [15]): 80%; POLCO pre-emergence efficacy (herbicidal activity) (Polygonum convolvulus; Dosage 80 g/ha): 70%
3 | O=S1(=O)CCCc2nc(N[C@@H]3CCCc4sccc43)ncc21 [compound 73] | – | 60 | 80 | 100 | – | 100 | 100 | 100 | 100 | 100 | 100 | 100 | 80 | 100 | 90 | 100 | 100 | 100 | 100 | 100 | post-emergence efficacy ECHCG (Echinochloa crus-galli [16]): 100%; post-emergence efficacy VERPE (Veronica persica [3]; 80 g/ha): 80%; post-emergence efficacy STEME (Stellaria media [14]; 80 g/ha): 90%; post-emergence efficacy STEME (Stellaria media [14]; 320 g/ha): 100%; post-emergence efficacy MATIN (Matricaria inodora [6]; 80 g/ha): 100%; logP (HCOOH) (logP (HCOOH)): oily; logP (HCOOH): 2.38;; ECHCG pre-emergence efficacy (herbicidal activity) (Echinochloa crus-galli [8]; Dosage 80 g/ha): 100%; AMARE pre-emergence efficacy (herbicidal activity) (Amaranthus retroflexus [9]; Dosage 80 g/ha): 100%; CYPES pre-emergence efficacy (herbicidal activity) (Cyperus esculentus): 100%; ALOMY pre-emergence efficacy (herbicidal activity) (Alopecurus myosuroides; Dosage 80 g/ha): 80%; POLCO pre-emergence efficacy (herbicidal activity) (Polygonum convolvulus; Dosage 80 g/ha): 100%
